Reference: patent publication US9427400B2, “Platinum-catalyzed intravaginal rings” (International Partnership for Microbicides, priority 2013, dated 2016)
≈ marks a conversion by molar mass, not a printed value. Read-outs that look alike come from different tables or passages of the source.

Key:
[1] = Log P (n-octanol and buffer); type: physicochemical; conditions: at pH 9.0
[2] = Solubility profile of dapivirine; type: physicochemical; conditions: for solubility: read-out: Solubility Profile (Low Solubility)
Description: As used herein, the term “dapivirine” refers to (4-[[4-[(2,4,6-trimethylphenyl)amino]-2-pyrimidinyl]amino]benzonitrile), a non-nucleoside reverse transcriptase inhibitor. Dapivirine is useful in the prevention and/or treatment of retroviral infection, such as HIV-1 infection. It is a crystalline compound that is white to slightly beige in color, has a melting point of about 220° C. and is virtually insoluble in water. More specifically, the solubility of dapivirine is less than 0.001 mg/gm of water (i.e., less than 1 μg/ml of water). The intravaginal rings of the instant invention may use micronized dapivirine.

[3] = tested on: wild-type HIV-1 strains and HIV-1 strains harboring different resistance-inducing mutations; conditions: wild-type and resistance-mutant strains; cited from earlier work

With `Cc1cc(C)c(Nc2ccnc(Nc3ccc(C#N)cc3)n2)c(C)c1` [dapivirine, 4-[[4-[(2,4,6-trimethylphenyl)amino]-2-pyrimidinyl]amino]benzonitrile] the logP [1] was 5.27, the solubility ([2]; 0.1N HCl, simulated gastric fluid) was 280 µg/mL (≈ 850 µM) and the “Solubility Profile (Low Solubility)” value ([2]; PEG 400) was “PEG 400 = 47.4 mg/g”. For the same compound, the “Solubility Profile (Low Solubility)” value ([2]; Propylene Glycol) was “Propylene Glycol = 2.69 mg/g”, the solubility ([2]; water) was > 1 µg/mL and the “activity against HIV-1 strains” value [3] was “potent activity”.
